The values that follow come from ChEMBL document CHEMBL1795207, “Syntheses of cellotriose and cellotetraose analogues as transition state mimics for mechanistic studies of cellulases” (Bioorg Med Chem, 2011).

Broadly, the Ki is a dissociation constant, usually derived from enzyme kinetics or from competition with a known ligand.

Each structure is given as a SMILES string.

One test concerns the target T1, Endoglucanase-5 (Mycothermus thermophilus, UniProt P43316).
T1 sequence (P43316 whole entry): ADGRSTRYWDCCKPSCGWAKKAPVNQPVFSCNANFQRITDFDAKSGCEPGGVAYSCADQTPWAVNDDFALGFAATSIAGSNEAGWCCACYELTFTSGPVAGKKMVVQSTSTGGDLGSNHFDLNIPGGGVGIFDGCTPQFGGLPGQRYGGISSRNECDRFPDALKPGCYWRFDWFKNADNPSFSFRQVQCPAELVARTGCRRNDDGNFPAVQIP
The test is described as follows: Binding affinity to Humicola insolens NCE5 assessed as dissociation constant at pH 3.0 and at 59 degC by differential scanning calorimetry. On the technique in general: DSC measures the heat that a sample takes up or gives off during a temperature scan.
For `CO[C@H]1O[C@H](CO)[C@@H](S[C@@H]2O[C@H](CO)[C@@H](O[C@@H]3O[C@H](CO)[C@@H](O)[C@H](O)[C@H]3O)[C@H](O)[C@H]2O)[C@H](O)[C@H]1O`, the inhibition constant Ki is above 30 mM.
On the same count and under the same terms, then `CO[C@@H]1O[C@H](CO)[C@@H](S[C@@H]2O[C@H](CO)[C@@H](O[C@@H]3O[C@H](CO)[C@@H](O)[C@H](O)[C@H]3O)[C@H](O)[C@H]2O)[C@H](O)[C@H]1O`, with above 30 mM; and `CO[C@@H]1O[C@H](CO)[C@@H](O[C@@H]2O[C@H](CO)[C@@H](S[C@@H]3O[C@H](CO)[C@@H](O[C@@H]4O[C@H](CO)[C@@H](O)[C@H](O)[C@H]4O)[C@H](O)[C@H]3O)[C@H](O)[C@H]2O)[C@H](O)[C@H]1O`, with 3.9 mM; and `CO[C@H]1O[C@H](CO)[C@@H](S[C@@H]2C=C(CO)[C@@H](O[C@@H]3O[C@H](CO)[C@@H](O)[C@H](O)[C@H]3O)[C@H](O)[C@H]2O)[C@H](O)[C@H]1O`, with 25 mM.
For `CO[C@@H]1O[C@H](CO)[C@@H](S[C@@H]2C=C(CO)[C@@H](O[C@@H]3O[C@H](CO)[C@@H](O)[C@H](O)[C@H]3O)[C@H](O)[C@H]2O)[C@H](O)[C@H]1O`, the Ki came to 29 mM.
On to `CO[C@@H]1O[C@H](CO)[C@@H](O[C@@H]2O[C@H](CO)[C@@H](S[C@@H]3C=C(CO)[C@@H](O[C@@H]4O[C@H](CO)[C@@H](O)[C@H](O)[C@H]4O)[C@H](O)[C@H]3O)[C@H](O)[C@H]2O)[C@H](O)[C@H]1O`, for which the Ki worked out at 1.6 mM.

In another test the target is T1, Endoglucanase-5. The test is described as follows: Binding affinity to Humicola insolens NCE5 assessed as dissociation constant at pH 4.
On to `O=C[C@H](O)[C@@H](O)[C@H](O[C@@H]1O[C@H](CO)[C@@H](O[C@@H]2O[C@H](CO)[C@@H](O[C@@H]3O[C@H](CO)[C@@H](O[C@@H]4O[C@H](CO)[C@@H](O[C@@H]5O[C@H](CO)[C@@H](O)[C@H](O)[C@H]5O)[C@H](O)[C@H]4O)[C@H](O)[C@H]3O)[C@H](O)[C@H]2O)[C@H](O)[C@H]1O)[C@H](O)CO` [CELLOHEXOSE], for which the Ki was found to be 0.42 mM.
